This note sets out measurements from patent US20180064665A1 (UNIVERSITY-INDUSTRY COOPERATION GROUP OF KYUNG HEE …, priority 2015, published 2018).

The nature of series [1]: Measurement of cell viability (MTT). It counts as cell-based, mouse. Particulars: mouse, Raw264.7 macrophage cells, Raw264.7 cells, with LPS 1 μg/mL, mean of three measurements, read-out: Cell viability (IC50 for cell toxicity). The method, then:
Raw264.7 cells (macrophage cell line from mouse) were obtained from Korean Cell Line Bank (KCLB) and cultured in Dulbecco's modified Eagle's medium containing 10% FBS, penicillin (100 units/ml), streptomycin sulfate (100 μg/ml) at 37° C. and 5% CO2 in humidified environment.
Cells were collected by centrifugation and scraping, and seeded at 1×10^5 cells/well in a 96 well plate containing 100 μl of RPMI 1640 medium with 10% FBS. 3β, 4β-epoxy-8α-isobutyryloxyguaia-1(10), 11, (13)-diene-12.6α-olide was dissolved in dimethylsulfoxide (DMSO) solvent and the concentration of DMSO was not more than 0.1% in all experiments. Next day, test compounds and LPS (1 μg/mL) were added and the plate were cultured for 24 hrs. After washing cells once, 50 μl of the medium containing 5 mg/ml MTT but without FBS was added and cells were cultured at 37° C. for 4 hrs. And then, the medium was removed, formazan blue formed in the cells was dissolved in 100 μl of DMSO, and an absorbance was measured at 540 nm to obtain IC50 values for cell toxicity. […] The results are shown in the above Table 1 and the values are means of three measurements.

The subject of another series is PGE2 production. In words: Inhibitory activity on PGE2 production in LPS-treated Raw264.7 cells (PGE2 immunoassay). It counts as cell-based, mouse. As to conditions: Mus musculus, LPS 1 μg/mL; for IC50: mean of three measurements, read-out: Inhibition of PGE2 production IC50. The method, then: Raw264.7 cells (macrophage cell line from mouse) were obtained from Korean Cell Line Bank (KCLB) and cultured in Dulbecco's modified Eagle's medium (DMEM) containing 10% Fetal Bovine Serum (FBS), penicillin (100 units/mL), streptomycin sulfate (100 μg/mL) at 37° C. and 5% CO2 in humidified environment. RAW264.7 cells at 5×10^5 cells/mL were seeded at 1 mL/well in 24 wells using DMEM, left overnight, replaced with a fresh medium and then treated with a test compound of an appropriate concentration. The cells were incubated for 1 hr and then treated with LPS at 1 μg/mL and incubated for 24 hrs (or proper period). A supernatant was taken and diluted five times. 150 μL of an analysis buffer was added to Non Specific Binding (NSB) well, and 100 μL of an analysis buffer was added to zero point standard (B0) well. 100 μL of a standard sample was added to the other wells and 50 μL of PGE2 conjugate was added (excluding NSB). 50 μL of PGE2 antibody solution was added and wells were shaken for 2 hrs. Each well was suctioned and washed with a wash buffer five times. Each 200 μL of para-Nitrophenyl phosphate (pNPP) substrate was added to the all wells and the wells were stored in a bench at room temperature for 1 hr. 50 μL of stop solution was added and an absorbance was measured at 405 nm. The amount of PGE2 was quantified using the measured absorbance and a standard curve and compared to a group treated with LPS only to obtain a concentration inhibiting 50% (IC50). The results are shown in the following Table 1 and the presented values are means of three measurements.

On to `O=C(Oc1ccccc1)N(NS(=O)(=O)c1ccccc1)c1ccccc1` [Comparative Example 1, N-phenyl-N′-(phenoxycarbonyl)-phenylsulfonhydrazide, reference compound], for which, in series [1], the IC50 at 24 h is above 10 µM. In addition, in the series on PGE2 production, the IC50 came out at 5.7 µM. The same compound registered an inhibition at 10 µM in the series with PGE2 production (compound at 10 μM) of 84.4%.
As to `Cc1cc(C)c(S(=O)(=O)N(Nc2ccccc2)C(=O)Oc2ccc3c(c2)CCC3)c(C)c1` [Example 28], the IC50 at 24 h in series [1] is above 1 µM. In the series with PGE2 production, the IC50 is 0.0586 µM. The compound further came in with an inhibition at 0.1 µM with PGE2 production (compound at 0.1 μM) of 57.2%.
